Results on 22 compounds are retold here after patent US10246456B2, “IRAK4 inhibiting agents” (BIOGEN MA INC., priority 2014, dated 2019).

Experiment [1] relates to IL-6 in A549 cells. Description: Cell-based IL-6 ELISA assay in IL-1beta stimulated A549 cells. The conditions noted are these: 2 ng/ml human IL-1beta overnight. A digest of the protocol:
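A549 cells (2.5×10^4/well, DMEM/10% FBS) pretreated 30 min at 37 C with compound, 10-point serial dilution from 10 uM, then stimulated overnight with 2 ng/ml human IL-1beta. Secreted IL-6 in supernatant quantified by human IL-6 ELISA.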

The target of experiment [2] is IRAK4 (Homo sapiens (Human), UniProt Q9NWZ3). Description: IRAK-4 AlphaScreen biochemical kinase assay. Conditions: 1 nM IRAK4, 1 mM ATP, 3.5 h at RT. A digest of the protocol:
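AlphaScreen read-out: streptavidin beads bind the biotinylated peptide and protein A beads bind the anti-phosphothreonine antibody, so energy transfer reports phosphorylation of the peptide. The kinase is human IRAK-4.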
A general note: Alpha assays give light when donor and acceptor beads are brought close together.

Sequence of IRAK4 (Q9NWZ3 whole entry, species assumed): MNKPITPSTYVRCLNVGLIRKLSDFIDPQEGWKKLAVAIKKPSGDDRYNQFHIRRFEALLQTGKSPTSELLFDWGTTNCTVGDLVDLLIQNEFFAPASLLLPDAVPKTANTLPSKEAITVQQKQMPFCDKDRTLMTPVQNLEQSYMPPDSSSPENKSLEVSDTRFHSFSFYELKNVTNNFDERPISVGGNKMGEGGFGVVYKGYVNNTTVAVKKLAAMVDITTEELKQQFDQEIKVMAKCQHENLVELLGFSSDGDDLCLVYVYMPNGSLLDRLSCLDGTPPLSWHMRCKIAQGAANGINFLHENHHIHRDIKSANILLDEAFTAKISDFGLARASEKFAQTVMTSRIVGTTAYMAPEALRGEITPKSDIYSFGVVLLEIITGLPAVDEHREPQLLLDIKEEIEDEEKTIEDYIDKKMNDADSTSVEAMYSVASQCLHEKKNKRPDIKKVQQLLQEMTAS

By EC50 is commonly meant the concentration that produces a half-maximal response. Read a high EC50 as a less potent agent. By IC50 is commonly meant the concentration at which inhibition is half-maximal. High values mean a need for much substance, low ones inhibition by little substance. For the compound `CCCC[C@H](N)c1cccc(-c2ccc3cnn(-c4cccc(CO)n4)c3c2)n1` [Example 493, (S)-(6-(6-(6-(1-aminopentyl)pyridin-2-yl)-1H-indazol-1-yl)pyridin-2-yl)methanol], the EC50 in experiment [1] is no more than 1 µM. For the same compound, the concentration for half-maximal inhibition (IC50) in experiment [2] was less than 0.1 µM.

`CCC[C@H](N)c1cccc(-c2cc(C3=CCOCC3)c3cnn(-c4cccc(CO)n4)c3c2)n1` [Example 494, (S)-(6-(6-(6-(1-aminobutyl)pyridin-2-yl)-4-(3,6-dihydro-2H-pyran-4-yl)-1H-indazol-1-yl)pyridin-2-yl)methanol] displayed an EC50 in experiment [1] of no more than 1 µM. The compound also showed an IC50 in experiment [2] of less than 0.1 µM.

For `CCC[C@H](N)c1cccc(-c2cc(COC)c3cnn(-c4cccc(CO)n4)c3c2)n1` [Example 495, (S)-(6-(6-(6-(1-aminobutyl)pyridin-2-yl)-4-(methoxymethyl)-1H-indazol-1-yl)pyridin-2-yl)methanol], the EC50 in experiment [1] was no more than 1 µM. The compound also had an IC50 in experiment [2] of less than 0.1 µM.

`COc1cc(-c2cccc([C@@H](N)C3CC3)n2)cc2c1cnn2-c1cncc(CO)n1` [Example 496, (S)-(6-(6-(6-(amino(cyclopropyl)methyl)pyridin-2-yl)-4-methoxy-1H-indazol-1-yl)pyrazin-2-yl)methanol] displayed an EC50 in experiment [1] of no more than 1 µM. Also, the IC50 in experiment [2] is less than 0.1 µM.

For the compound `CCC[C@H](N)c1cccc(-c2cc(COC(F)F)c3cnn(-c4cccc(CO)n4)c3c2)n1` [Example 497, (S)-(6-(6-(6-(1-aminobutyl)pyridin-2-yl)-4-((difluoromethoxy)methyl)-1H-indazol-1-yl)pyridin-2-yl)methanol], in experiment [1], the EC50 is no more than 1 µM. Also, the IC50 in experiment [2] was less than 0.1 µM.

Turning to `CCC[C@H](N)c1cccc(-c2cc(CN3CCOCC3)c3cnn(-c4cccc(CO)n4)c3c2)n1` [Example 498, (S)-(6-(6-(6-(1-aminobutyl)pyridin-2-yl)-4-(morpholinomethyl)-1H-indazol-1-yl)pyridin-2-yl)methanol], in experiment [1], the concentration for a half-maximal effect (EC50) is no more than 1 µM. This compound also gave an IC50 in experiment [2] of less than 0.1 µM.

`CCC[C@H](N)c1cccc(-c2cc(OCC)c3cnn(-c4cncc(CO)n4)c3c2)n1` [Example 499, (S)-(6-(6-(6-(1-aminobutyl)pyridin-2-yl)-4-ethoxy-1H-indazol-1-yl)pyrazin-2-yl)methanol] gave an EC50 in experiment [1] of no more than 1 µM. In experiment [2], this compound gave an IC50 of less than 0.1 µM.

With `CCOc1cc(-c2cccc([C@@H](N)CC)n2)cc2c1cnn2-c1cncc(CO)n1` [Example 500, (S)-(6-(6-(6-(1-aminopropyl)pyridin-2-yl)-4-ethoxy-1H-indazol-1-yl)pyrazin-2-yl)methanol], in experiment [1], the EC50 was no more than 1 µM. Also, in experiment [2], the half-inhibitory concentration (IC50) was less than 0.1 µM.

Regarding `CCOc1cc(-c2cccc([C@@H](N)C3CC3)n2)cc2c1cnn2-c1cncc(CO)n1` [Example 501, (S)-(6-(6-(6-(amino(cyclopropyl)methyl)pyridin-2-yl)-4-ethoxy-1H-indazol-1-yl)pyrazin-2-yl)methanol], in experiment [1], the EC50 is no more than 1 µM. The IC50 in experiment [2] is less than 0.1 µM.

The compound `COc1cc(-c2cccc([C@@H](N)CCC(F)(F)F)n2)cc2c1cnn2-c1cccc(CO)n1` [Example 502, (S)-(6-(6-(6-(1-amino-4,4,4-trifluorobutyl)pyridin-2-yl)-4-methoxy-1H-indazol-1-yl)pyridin-2-yl)methanol] had an EC50 in experiment [1] of no more than 1 µM. In experiment [2], this compound showed an IC50 of less than 0.1 µM.

As to `CC[C@H](N)c1cccc(-c2cc(OC)c3cnn(-c4cncc(CO)n4)c3c2)n1` [Example 503, (S)-(6-(6-(6-(1-aminopropyl)pyridin-2-yl)-4-methoxy-1H-indazol-1-yl)pyrazin-2-yl)methanol], the EC50 in experiment [1] is no more than 1 µM. This compound also gave an IC50 in experiment [2] of less than 0.1 µM.

Compound `CCC[C@H](N)c1cccc(-c2cc(OC)c3cnn(-c4nccc(C(F)(F)F)n4)c3c2)n1` [Example 504, (S)-1-(6-(4-methoxy-1-(4-(trifluoromethyl)pyrimidin-2-yl)-1H-indazol-6-yl)pyridin-2-yl)butan-1-amine] had an EC50 in experiment [1] of no more than 1 µM. Also, the IC50 in experiment [2] was less than 0.1 µM.

Compound `CCC[C@H](N)c1cccc(-c2cc(OCC)c3cnn(-c4nccc(C(F)(F)F)n4)c3c2)n1` [Example 505, (S)-1-(6-(4-ethoxy-1-(4-(trifluoromethyl)pyrimidin-2-yl)-1H-indazol-6-yl)pyridin-2-yl)butan-1-amine] showed an EC50 in experiment [1] of no more than 1 µM. In experiment [2], this compound showed an IC50 of less than 0.1 µM.

`CCC[C@H](N)c1cccc(-c2cc(OCC3CCCNC3)c3cnn(-c4cccc(CO)n4)c3c2)n1` (stereo partly drawn) [Example 506, (6-(6-(6-((S)-1-aminobutyl)pyridin-2-yl)-4-(piperidin-3-ylmethoxy)-1H-indazol-1-yl)pyridin-2-yl)methanol] displayed an EC50 in experiment [1] of no more than 1 µM. This compound also registered a 50% inhibitory concentration (IC50) in experiment [2] of less than 0.1 µM.

The compound `CCC(O)C(N)c1cccc(-c2ccc3cnn(-c4cccc(CO)n4)c3c2)n1` (centres unmarked) [Example 507, 1-amino-1-(6-(1-(6-(hydroxymethyl)pyridin-2-yl)-1H-indazol-6-yl)pyridin-2-yl)butan-2-ol] returned an EC50 in experiment [1] of no more than 1 µM. For the same compound, the IC50 in experiment [2] is less than 0.1 µM.

`CC(O)CC(N)c1cccc(-c2ccc3cnn(-c4cccc(CO)n4)c3c2)n1` (centres unmarked) [Example 508, 4-amino-4-(6-(1-(6-(hydroxymethyl)pyridin-2-yl)-1H-indazol-6-yl)pyridin-2-yl)butan-2-ol] showed an EC50 in experiment [1] of no more than 1 µM. The compound also had an IC50 in experiment [2] of less than 0.1 µM.

With `COCCC[C@H](N)c1cccc(-c2cc(OC)c3cnn(-c4cccc(CO)n4)c3c2)n1` [Example 509, (S)-(6-(6-(6-(1-amino-4-methoxybutyl)pyridin-2-yl)-4-methoxy-1H-indazol-1-yl)pyridin-2-yl)methanol], the EC50 in experiment [1] was no more than 1 µM. For the same compound, in experiment [2], the IC50 was less than 0.1 µM.

With `CCOc1cc(-c2cccc([C@@H](N)CCC(F)(F)F)n2)cc2c1cnn2-c1cccc(CO)n1` [Example 510, (S)-(6-(6-(6-(1-amino-4,4,4-trifluorobutyl)pyridin-2-yl)-4-ethoxy-1H-indazol-1-yl)pyridin-2-yl)methanol], the EC50 in experiment [1] was no more than 1 µM. The IC50 in experiment [2] is less than 0.1 µM.

The compound `CCC[C@H](N)c1cccc(-c2cc(C#N)c3cnn(-c4cccc(CO)n4)c3c2)n1` [Example 511, (S)-6-(6-(1-aminobutyl)pyridin-2-yl)-1-(6-(hydroxymethyl)pyridin-2-yl)-1H-indazole-4-carbonitrile] registered an EC50 in experiment [1] of no more than 1 µM. In experiment [2], this compound registered an IC50 of less than 0.1 µM.

In experiment [1], `CC[C@H](N)c1cccc(-c2ccc3cnn(-c4nccc(C(F)F)n4)c3c2)n1` [Example 512, (S)-1-(6-(1-(4-(difluoromethyl)pyrimidin-2-yl)-1H-indazol-6-yl)pyridin-2-yl)propan-1-amine] had an EC50 of no more than 1 µM. In addition, the IC50 in experiment [2] was less than 0.1 µM.

As for `CCOc1cc(-c2cccc([C@@H](N)CCCOC)n2)cc2c1cnn2-c1cccc(CO)n1` [Example 513, (S)-(6-(6-(6-(1-amino-4-methoxybutyl)pyridin-2-yl)-4-ethoxy-1H-indazol-1-yl)pyridin-2-yl)methanol], the EC50 in experiment [1] is no more than 1 µM. For the same compound, the IC50 in experiment [2] was less than 0.1 µM.

Take `CCC[C@H](N)c1cccc(-c2cc(OCC(F)(F)F)c3cnn(-c4cccc(CO)n4)c3c2)n1` [Example 514, (S)-(6-(6-(6-(1-aminobutyl)pyridin-2-yl)-4-(2,2,2-trifluoroethoxy)-1H-indazol-1-yl)pyridin-2-yl)methanol]: the EC50 in experiment [1] was no more than 1 µM. Also, the IC50 in experiment [2] is less than 0.1 µM.
